Measured values published in PubChem BioAssay AID463229 (Broad Institute, 2010).
Activity calls are given as the source filed them.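 The calls were made as follows: active = compounds raising the signal whose fitted half-maximal concentration is at or below their top tested dose (cut at about 25 µM in these data); inconclusive = flat fit at 30 to 70% activity, or a poor fit; inactive = the rest.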

Tested on: INS-1E rat beta cells, no cytokines, CellTiter-Glo ATP, 48 h
Assay: cytokine-free beta-cell viability effect – INS-1E rat cells, ATP luminescence, cherry pick, counter-screen for beta-cell apoptosis protection project, dose response (AID 463229)

| SMILES | AC50 |
| --- | --- |
| CCCCNC(=O)c1ccc(Cn2c(=S)[nH]c3c([nH]c4ccc(OC)cc43)c2=O)cc1 | 6.92 µM |
| CC1=C(C)/C(=N\OS(=O)(=O)c2ccc(C)cc2)C=CC1=O | 4.47 µM |
| O=C(NC1(Cc2ccccc2)CCN(CCCc2ccccc2)C1=O)c1ccccc1 (stereo not given) | 4.71 µM |
| COc1ccc(C2/C=C\CN(C(=O)c3ccccc3)[C@H](Cc3ccccc3)C(=O)N2Cc2ccc(F)cc2)cc1 (stereo not given in full) | 7.75 µM |
| COc1cc(Cl)c(NC2=CC(=O)C(=O)c3ccccc32)c(OC)c1 | 8.01 µM |
| OCc1ccc(O)c2ncccc12 | 2.38 µM |
| COc1ccc(CC(=O)Nc2cccc(S(=O)(=O)N3CCCCCC3)c2)cc1OC | 10 µM |
| Oc1ccc(CNc2ccccc2)c2cccnc12 | 22.8 µM |
| COc1ccc(-c2cn(-c3ccc(OC)cc3)c3[n+]2-c2ccccc2CC3)cc1 | 0.806 µM |
| Cc1cc(C)cc(OCC(O)CN2CCC(CN3C(=O)c4cccc5cccc(c45)C3=O)CC2)c1 (stereo not given) | 7.97 µM |
| O=C(CNc1ccccc1)N/N=C/c1c(O)ccc2ccccc12 | 15.8 µM |
| CC(C)=CCc1cc2c(=O)c3c(O)c4c(cc3oc2c(O)c1O)OC(C)C4(C)C (stereo not given) | 7.43 µM |
| O=C(NC(Nc1nc2ccc([N+](=O)[O-])cc2s1)(C(F)(F)F)C(F)(F)F)c1cccnc1 | 2.58 µM |
| COc1ccc(-c2sc3ccccc3c2-c2ccc(OCCN3CCCCC3)cc2)cc1 | 14.8 µM |
| N#CC(C#N)=C(Nc1ccc(F)cc1)SCc1cccc(F)c1 | 5.08 µM |
| COc1cccc(/C=N\NC(=O)c2ccc(Cn3cc(Br)c([N+](=O)[O-])n3)o2)c1O | 7.9 µM |
| C/C(=N\NC(=O)c1cccc(Br)c1)c1ccccn1 | 1.32 µM |
| CN(Cc1cccnc1)C(=O)c1cc(COc2ccc3ncccc3c2)on1 | 9.3 µM |
| CCCCn1c(=N)n(CC(=O)c2ccc(Br)s2)c2ccccc21 | 13.1 µM |
| O=C(Cc1ccccc1)N/N=C/c1ccc([N+](=O)[O-])s1 | 7.26 µM |
| Cn1nccc1C(=O)NC1CCCc2c1cnn2-c1ccc(F)cc1F (stereo not given) | 2.48 µM |
| COC(=O)C1=C(c2ccc(OCc3ccccc3)cc2)C[C@@H]2CC[C@H]1N2C(=O)NC1CCN(Cc2ccccc2)CC1 | 7.55 µM |
| O=C(NCCc1ccccc1)[C@@H]1CC=C[C@@H]2CCN(Cc3ccc(Cl)c(Cl)c3)C(=O)[C@@H]21 | 13.2 µM |
| COc1ccc(-n2cc(-c3ccc(C)cc3)[n+]3c2SCC3)cc1 | 0.924 µM |
| C=C1C(=O)O[C@@H]2C[C@@H](C)[C@@H]3C=CC(=O)[C@@]3(C)[C@@H](OC(C)=O)[C@H]12 | 2.21 µM |
| CCOC(=O)c1c(C)[nH]c(C(=O)OCC(=O)NC(C)(C)C)c1C | 13.1 µM |
| O=C(Nc1cc(Sc2ccccn2)cc([N+](=O)[O-])c1)c1ccc(Cl)cc1 | 8.9 µM |

| SMILES | AC50 |
| --- | --- |
| CC(=O)c1ccc(NC(=S)NC(C)c2ccc(Cl)cc2Cl)cc1 (stereo not given) | 21.1 µM |
| Cc1ccc(CSC(Nc2ccc(F)cc2)=C(C#N)C#N)cc1 | 4.11 µM |
| Fc1ccc(-c2cc(-c3nnc4n3CCCCC4)c3ccccc3n2)cc1 | 8.53 µM |
| C/C(=N\NC(=O)c1cc(C2CC2)nc2ccccc12)c1ccc(O)cc1O | 5.61 µM |
| Cc1ccnc(NC(=O)c2ccc([N+](=O)[O-])s2)c1 | 8.41 µM |
| O=C(/C=C/c1cccc([N+](=O)[O-])c1)c1ccc([N+](=O)[O-])o1 | 3.95 µM |
| CC(C)COCc1ccc(O)c2ncccc12 | 8.01 µM |
| C=C(C)C(=O)O[C@H]1C/C(C)=C\C(=O)/C=C(\C)[C@H](O)[C@@H]2OC(=O)C(=C)[C@@H]21 | 14.5 µM |
| Cc1ccc(S(=O)(=O)N2CCN(c3ncnc4sccc34)CC2)cc1 | 8.15 µM |
| c1ccc(CN2CCN(Cc3c[nH]c4ccccc34)CC2)cc1 | 7.83 µM |
| Oc1ccc(N=Nc2ccccc2C(F)(F)F)c2cccnc12 | 3.18 µM |
| Cc1ccc(NC(=O)Cn2c(=O)oc3cc(S(=O)(=O)N4CCC(C)CC4)ccc32)cc1C | 16 µM |
| NC(N)=N/N=C/c1ccc(OCc2ccccc2)cc1 | 14.7 µM |
| O=S(=O)(Nc1nc2ccccc2nc1Nc1ccc(N2CCOCC2)cc1)c1cc(Cl)ccc1Cl | 6.63 µM |
| NC(=S)N/N=C/c1ccccc1O | > 26 µM (inactive) |
| O=C(Nc1cccnc1)c1cccs1 | 1.86 µM |
| CN(C)CCCNS(=O)(=O)c1ccc(NC2CCCCCC2)c([N+](=O)[O-])c1 | 7.27 µM |
| CCCCCCCCCC[N+](C)(C)CC/C=C1/c2ccccc2Sc2ccc(Cl)cc21 | 7.99 µM |
| CC(C)(C)c1ccc(NNC(=O)C2CCC2)cc1 | 9.64 µM |
| CCn1c(C)nc2cc(C(=O)N/N=C/c3cccc(O)c3O)ccc21 | 8.42 µM |
| Cc1ccc(N2C(=O)NC(=O)/C(=C\C=C\c3ccco3)C2=O)cc1C | 5.85 µM |
| Cc1ccc(NC2=CC(=O)C(=O)c3ccccc32)cc1 | 7.65 µM |
| COc1cccc(/C=N/Nc2ncnc3scc(-c4ccccc4)c23)c1O | 2.02 µM |
| O=C(/C=C/c1ccccc1)NC(=S)NNC(=O)c1cnccn1 | 5.91 µM |
| Cc1ccn2c(Nc3ccccc3C)c(-c3ccccn3)nc2c1 | 9.55 µM |
| Cc1ccc2[nH]cc(/C=C/c3cc[n+](C)cc3)c2c1 | 5.46 µM |
| CN1CCN(c2ccc(CNS(=O)(=O)Cc3cccc(C(F)(F)F)c3)cc2)CC1 | 8.93 µM |

| SMILES | AC50 |
| --- | --- |
| Cc1ccc(S(=O)(=O)c2ccc([N+](=O)[O-])cn2)cc1 | 13.5 µM |
| O=C(Nc1nc(-c2ccccn2)cs1)c1cc(Cl)ccc1[N+](=O)[O-] | 4.6 µM |
| CC(C)Cn1c(SCC(=O)N2CCc3ccccc3C2)nc2cc(Cl)ccc2c1=O | 6.5 µM |
| O=S(=O)(c1ccc(Cl)cc1)N1CCN(Cc2ccc(O)c3ncccc23)CC1 | 7.13 µM |
| Cc1sc2ncnc(NCC(O)c3ccc([N+](=O)[O-])cc3)c2c1C (stereo not given) | 5.1 µM |
| COc1ccc(C2/C=C\CN(C(=O)Nc3ccc(C(F)(F)F)cc3)CC(=O)N2Cc2ccc(F)cc2)cc1 (stereo not given) | 7.66 µM |
| COc1ccccc1-n1c(=O)oc2ccc(Cl)cc2c1=O | 11.8 µM |
| Cc1ccc(C(=O)NC2CCCc3c2cnn3-c2ccc(F)cc2F)cn1 (stereo not given) | 7.07 µM |
| O=S(=O)(Nc1cc(Sc2cccc3cccnc23)c(O)c2ccccc12)c1ccc(F)cc1 | 3.9 µM |
| COc1cc(CNC2CCCC2)cc(Cl)c1OCc1ccccc1Cl | 14.6 µM |
| Clc1ccc(C(c2ccc(Cl)cc2)n2cc[n+](CC(OCc3ccc(Cl)cc3Cl)c3ccc(Cl)cc3Cl)c2)cc1 (stereo not given) | 3.69 µM |
| Oc1cccc(/C=N/NC(=S)Nc2cccnc2)c1O | 8.6 µM |
| c1ccc(N2CCN(c3nc(-c4ccccn4)nc4ccccc34)CC2)cc1 | 14.9 µM |
| CNC(=O)c1cc(Oc2ccc(NC(=O)Nc3ccc(Cl)c(C(F)(F)F)c3)cc2)ccn1 | 7.39 µM |
| CC(=O)NC(c1ccc(C(C)C)cc1)c1ccc2cccnc2c1O (stereo not given) | 1.98 µM |
| Cn1nccc1C(=O)NC1CCCc2c1cnn2-c1ccc(C(C)(C)C)cc1 (stereo not given) | 2.11 µM |
| Cc1ccc(S(=O)(=O)/N=C2\C(=O)c3ccccc3C([O-])=C2n2cc[n+](CCC(C)C)c2)cc1 | 16.7 µM |
| CC(=O)C1=NN(c2ccccc2)C(c2cccs2)N1c1ccc(N(C)C)cc1 (stereo not given) | 3.56 µM |
| O=C(Nc1cccc(C(F)(F)F)c1)Oc1ccc(Cl)c2cccnc12 | 7.64 µM |
| Cc1cccc(NC(=O)/C=C/c2ccc([N+](=O)[O-])s2)c1 | 8.56 µM |
| C#CCOCCOCCOCCNc1nc(N2CCN(C(=O)CCCCCCCCCCNC(=O)Cn3cc(CCCCCN)nn3)CC2)nc(N2CCN(C(=O)CCCCCCCCCCNC(=O)[C@H]([C@@H](C)CC)n3cc(CCCCN=C(N)N)nn3)CC2)n1 | 8.89 µM |
| CC(C)NC(=S)N/N=C/c1cc(Br)ccc1O | 12.6 µM |
| COc1cccc(/C=N/NC(=O)c2cc3c(OC)ccc(OC)c3[nH]2)c1O | 10.7 µM |
| CCCCCCC(=O)N1C/C=C\C(c2ccc(OC)cc2)N(Cc2ccc(F)cc2)C(=O)[C@H]1Cc1ccccc1 (stereo not given in full) | 5.73 µM |
| COc1ccc(C(=O)N/N=C/c2ccccc2OC(=O)c2ccccc2)cc1 | 7.93 µM |
| Cc1c(Cl)c([N+](=O)[O-])nn1Cc1ccc(C(=O)N/N=C\c2cc(Cl)ccc2O)o1 | 6.95 µM |
| Nc1nc(N)c2cc(Sc3ccc4ccccc4c3)ccc2n1 | 2.09 µM |

| SMILES | AC50 |
| --- | --- |
| Cc1cc(Nc2nc3ccccc3nc2Cl)n(-c2ccc([N+](=O)[O-])cc2)n1 | 12 µM |
| CCOc1ccc(Nc2nc(Cc3nnc(SCC(=O)c4ccc(C)c(C)c4)o3)cs2)cc1 | 10.6 µM |
| Cc1ccccc1-c1cc(C(=O)Nc2sc(C)c(C)c2C(N)=O)c2ccccc2n1 | 6.8 µM |
| CCCCCc1cc(=O)oc2c(C(CCN3CCCCC3)c3ccc4c(c3)OCO4)c(OC)cc(OC)c12 (stereo not given) | 7.89 µM |
| c1ccc(CCNc2ncnc3ccccc23)cc1 | 1.71 µM |
| CCC1=NN(C(=O)c2ccccc2O)C(O)(c2ccccc2)C1 (stereo not given) | 15.6 µM |
| COc1cccc(/C=N/Nc2ccc([N+](=O)[O-])cn2)c1O | 7.78 µM |
| O=[N+]([O-])c1ccc(/C=N/n2c(CO)nc3ccccc32)s1 | 10.8 µM |
| O=S(=O)(NCC1CCCO1)c1ccc(-c2ccc(S(=O)(=O)NCC3CCCO3)cc2)cc1 (stereo not given) | 4.95 µM |
| Cc1ccc2c(c1)N(C)/C(=C/c1cccc[n+]1CCO)S2 | 3.18 µM |
| C#CCOCCOCCOCCNc1nc(N2CCN(C(=O)CCCCCCCCCCNC(=O)[C@@H](CCSC)n3cc(CCO)nn3)CC2)nc(N2CCN(C(=O)CCCCCCCCCCNC(=O)[C@H]([C@@H](C)CC)n3cc(CCCCCN)nn3)CC2)n1 | 12.9 µM |
| Cc1nn(S(=O)(=O)c2ccc(Cl)cc2)c(C)c1Sc1ccc([N+](=O)[O-])cc1 | 7.69 µM |
| CCC(Sc1nc(C)cc(C)n1)C(=O)NC1=NN=C(c2ccc(C)cc2)CS1 (stereo not given) | 2.14 µM |
| C=C(C(=O)c1ccccc1)C(C(=C)C(=O)c1ccccc1)c1ccc(OC)cc1 | 7.54 µM |
| CN(C)S(=O)(=O)c1cccc(CSCc2cccc(S(=O)(=O)N(C)C)c2)c1 | 7.78 µM |
| CCC(CO)[n+]1c(C)cc(/C=C2\Sc3ccccc3N2Cc2ccccc2)cc1C (stereo not given) | 0.765 µM |
| CCOC(=O)c1cnc(-n2nc(C)cc2C)nc1NNc1cc(C)nc(-c2ccccc2)n1 | 7.19 µM |
| CCCCn1c(NS(=O)(=O)c2ccccc2)c(S(=O)(=O)c2ccc(C)cc2)c2nc3ccccc3nc21 | 22.1 µM |
| CCCCCCOC(=O)C[N+](C)(C)CCOC1CC2CCC1(C)C2(C)C (stereo not given) | 4.48 µM |
| Cc1cc(C)c(C)c(S(=O)(=O)N2CCN(c3ncnc4ccccc34)CC2)c1C | 6.34 µM |
| Cc1ccc(F)c([C@H]2C3C=CCC(c4ccccc4)C3C(=O)N2Cc2ccccc2)c1 (stereo not given in full) | 14.4 µM |
| Cc1cc(N)c2cc(NC(=O)/C=C/c3ccccc3Cl)ccc2n1 | 14.2 µM |
| C/C(=N\NC(=O)c1cc2ccccc2cc1O)c1ccccn1 | 2.66 µM |
| COc1ccccc1NC(=O)c1nc(S(=O)(=O)Cc2ccccc2)ncc1Cl | 8.64 µM |
